Ends that are not written are not given here.
Columns and labels:
[1] = Alcβ-KO mice, subcutaneous administration
mitochondrial activity = details: ref Singh et al, 2017; cited from earlier work
Excerpt: Therefore, we would like to re‐emphasize that the function of p3‐Alcβ is to increase neuronal viability and to protect neurons against Aβ‐induced toxicity, and that the target of p3‐Alcβ may not directly be Aβ peptide and Aβ aggregates/plaques. This property of p3‐Alcβ as a druggable candidate for AD therapy is likely to be distinct from immunotherapies that use anti‐Aβ antibodies. Furthermore, the fu ...

[2] = tested on: Aβo-induced Ca2+ influx in mouse primary neurons; assay: Aβ42 oligomer-induced Ca2+ influx, Fluo 4-AM (Fig 3A, 3B, 4A, 4D, EV2A, EV2B); assay type: cell-based; details: neurons div 14, Aβo 5.2 μM
[3] = tested on: Ca2+ influx in mouse primary neurons; assay: Ca2+ influx after CaCl2 administration in Ca2+-depleted medium, Fluo 4-AM (Fig 3C, 3D, 4C); assay type: cell-based; details: neurons div 11–14, CaCl2 2 mM, D-AP5 5, 50 and 200 μM; AUC 5–14 min; n = 6
Method: All animal studies were conducted in compliance with the ARRIVE guidelines. The mouse study was approved by the Animal Studies Committee of Hokkaido University (#18‐0168). WT C57BL/6J (CLEA, Japan, Inc), Alcβ‐KO (RBRC11514) (Gotoh et al, [2020]), App ^ NL‐F/NL‐F (RBRC06343), and App ^ NL‐G‐F/NL‐G‐F (RBRC06344) (Saito et al, [2014]) mice were housed in specific pathogen‐free (SPF) conditions with a microenvironment vent system (Allentown Inc., Allentown, NJ, USA) under a 12 h/12 h light/dark cycle with free access to food and water. Three to five male or female siblings were housed in each cage; cages were equipped with microbarrier tops. All experimental procedures with Cynomolgus monkeys were approved by the Animal Care and Use Committee of Shiga University of Medical Science and were carried out in accordance with approved guidelines (Nishimura et al, [2012]). Stored frozen pieces of the cerebral cortex of monkeys were used. Sprague–Dawley rats (8‐week‐old) were purchased from Japan SLC Inc. (Hamamatsu, Japan) and housed with their littermates. […] All animal protocols and related experiments were approved by the Ethics Committees of the Central Research Laboratory at Hamamatsu Photonics and Hamamatsu University School of Medicine. […]

[4] = WT mice, s.c. injection 5 mg/kg, n = 4 per time point
Excerpt: IgG was purified with antigen‐coupled resin and conjugated to biotin. Horseradish peroxidase‐conjugated streptavidin was purchased from Amersham/GE Healthcare (Cat #RPN1051, Little Chalfont, UK), and the tetramethyl benzidine (TMB) microwell peroxidase substrate system was obtained from SeraCare Life Sciences Inc. (Cat #5120‐0075, Milford, MA, USA). Mice were then anesthetized with 1% isoflurane, CSF was collected from the cisterna magna as described previously (Liu & Duff, [2008]), and mice were then sacrificed. […] The sensitivity of this ELISA is equivalent to that of other sELISA systems used to quantify p3‐Alcβ37 and p3‐Alcβ40 (Hata et al, [2019]). Antiserum diluted 1:10,000 was used as a capture antibody in the sELISA. The antibody was affinity‐purified with antigen‐coupled resin, and biotin‐labeled IgG was then used as the detection antibody.

VLSSQQFLHRGHQPPPEMAGHSLASSHRNSMIPSAAT [p3‐Alcβ37]
transport into the brain [1]: transported into the brain

CC12CC3CC(C)(C1)CC(N)(C3)C2 [memantine]
mitochondrial activity (mitochondrial activity): does not increase mitochondrial activity

NC(CCCP(=O)(O)O)C(=O)O (stereo not drawn) [D‐AP5]
Aβo-induced Ca2+ entry with NMDA antagonist (Fig 4A) ([2]; D-AP5 50 μM, AUC 5–29 min, n = 4): suppressed
suppression of Aβo-triggered Ca2+ influx, single agents (Fig 4D) ([2]; p3-Alcβ9-19 50 μM or D-AP5 50 μM, AUC 5–28 min, n = 12): suppressed significantly
Ca2+ influx after Ca2+ administration with D-AP5 (Fig 4C) [3]: slightly, but not significantly, reduced

HRGHQPPPEMA [p3‐Alcβ9‐19]
transfer into the brain, p3-Alcβ9-19 levels in CSF by sELISA [4]: successful transfer
